The text below walks through data of ChEMBL document CHEMBL1201862, “PubChem BioAssay data set” (2004).

Experiment in all cases: NCI tumour cell line growth inhibition, 48 h
The test system of assay [1] is SR.
Assay [2] has as its system KM12.
Assay [3] concerns UO-31.
Assay [4] has as its system SW-620.
In assay [5] the test system is ACHN.
Assay [6] deals with M14.
The test system of assay [7] is MDA-MB-231.
In assay [8] the test system is OVCAR-4.
Assay [9] relates to SF-295.
The subject of assay [10] is CAKI-1.
The subject of assay [11] is NCI/ADR-RES.
In assay [12] the test system is LOX IMVI.
In assay [13] the test system is HOP-92.
Assay [14] concerns SNB-75.
Assay [15] has as its system MCF7.
Assay [16] relates to 786-0.
Assay [17] deals with HL-60.
In assay [18] the test system is SF-539.
For assay [19], the system named is SN12C.

Molecules are shown by their SMILES.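 All cell lines were grown in 96-well plates and treated with compound for 48 hours. Here, GI50 denotes the concentration required for 50% inhibition of growth.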 Active and inactive are the calls of the source. Cut-off read from the data, not from the text of the source: active = GI50 up to about 1.1 µM and inactive = higher.

Turning to `CCC/C=C/c1cc2c(cc1O)CC[C@@H]1[C@@H]2CC[C@]2(C)[C@@H](O)CC[C@@H]12`, the GI50 is 15.4 µM (inactive) in assay [1]; 17.3 µM (inactive) in assay [2]; 16.3 µM (inactive) in assay [3]; 20.6 µM (inactive) in assay [4]; 16.7 µM (inactive) in [5]; 20.3 µM (inactive) in [6]. For the same compound, the GI50 in [7] is 15.5 µM (inactive); in assay [8], 19 µM (inactive); in assay [9], 17.6 µM (inactive); in assay [10], 21.2 µM (inactive); in assay [11] it was 18.5 µM (inactive); in assay [12], 14.8 µM (inactive). Further, the GI50 in assay [13] was 20.3 µM (inactive); in assay [14] it was 16.4 µM (inactive); in assay [15] it was 25.5 µM (inactive); in assay [16], 15.2 µM (inactive).
On to `C/C(=N\NS(=O)(=O)c1ccc([N+](=O)[O-])cc1)c1ccc[n+]([O-])n1`, for which the GI50 is 3.92 µM (inactive) in [1]; 2.39 µM (inactive) in assay [2]; 1.81 µM (inactive) in assay [17]; 2.64 µM (inactive) in assay [3]; 2.29 µM (inactive) in assay [4]; 2.44 µM (inactive) in assay [5]. The GI50 in [6] was 1.8 µM (inactive); in [8] it was 1.35 µM (inactive); in assay [9] it was 1.9 µM (inactive); in assay [10], 2.32 µM (inactive); in assay [12], 0.912 µM (active); in assay [13], 2.94 µM (inactive). Besides, the GI50 in assay [18] is 2.08 µM (inactive); in assay [14] it was 1.95 µM (inactive); in [19] it was 2.97 µM (inactive); in [16] it was 2.36 µM (inactive).
Consider `O=[N+]([O-])c1ccc(C2CC(c3ccc(NCc4nc5ccccc5[nH]4)cc3)=NO2)cc1` (stereo not drawn), for which the GI50 was 4.93 µM (inactive) in assay [1]; 21.1 µM (inactive) in assay [2]; 20.4 µM (inactive) in [17]; > 100 µM (inactive) in [3]; 33.5 µM (inactive) in assay [4]; 33.3 µM (inactive) in assay [5]. The GI50 is 33.5 µM (inactive) in assay [6]; 14.3 µM (inactive) in [8]; 21.8 µM (inactive) in assay [9]; > 100 µM (inactive) in [10]; 35.5 µM (inactive) in assay [12]; > 100 µM (inactive) in assay [13]. For the same compound, the GI50 was > 100 µM (inactive) in assay [18], > 100 µM (inactive) in assay [14], 30.7 µM (inactive) in assay [19] and 39.6 µM (inactive) in assay [16].
For the compound `NC1N=Nc2ccccc21` (stereo not drawn), the GI50 in [1], in [2], in assay [17], in [3], in assay [4] and in assay [5] was > 100 µM (inactive) in each case. Moreover, the GI50 in assay [6], in [8], in assay [9], in assay [10], in assay [12] and in assay [13] was > 100 µM (inactive) in each case. The GI50 in assay [18], in assay [14], in assay [19] and in assay [16] was > 100 µM (inactive) each time.
Regarding `CCOC(=O)/C(Br)=C1/OC(=O)c2ccccc2-c2ccccc21.CCOC(=O)/C(Br)=C1\OC(=O)c2ccccc2-c2ccccc21`, the GI50 in [1] was 16 µM (inactive); in assay [2] it was 14.8 µM (inactive); in assay [17], 8.3 µM (inactive); in assay [3] it was 39.8 µM (inactive); in [4] it was 16.1 µM (inactive); in [5], 15.7 µM (inactive). The GI50 in assay [6] was 17 µM (inactive); in assay [9], 21.9 µM (inactive); in assay [10] it was 16.4 µM (inactive); in [12], 16.5 µM (inactive); in [13], 11.8 µM (inactive); in [18] it was 21.5 µM (inactive). Moreover, the GI50 in [14] was 25.2 µM (inactive); in [19], 22.8 µM (inactive); in assay [16], 17.1 µM (inactive).
As for `O=C(/C=N/c1ccccc1[S-])c1ccco1.O=C(/C=N/c1ccccc1[S-])c1ccco1.[Zn+2]`, the GI50 in assay [1] is 6.58 µM (inactive); in [2], 12.8 µM (inactive); in [17], 3.56 µM (inactive); in assay [3], 2.99 µM (inactive); in [4], 10.9 µM (inactive); in [5], 5.46 µM (inactive). The GI50 in assay [6] is 6.53 µM (inactive); in assay [9], 3.78 µM (inactive); in assay [10], 10 µM (inactive); in assay [12], 7.46 µM (inactive); in [13] it was 11.5 µM (inactive); in [18], 13.3 µM (inactive). Also, the GI50 in assay [14] is 8.28 µM (inactive); in [19] it was 10 µM (inactive); in assay [16], 8.3 µM (inactive).
Regarding `CC(=O)OC1COC(N2C(=O)C(=O)c3c(C)cc(Cl)nc32)C(OC(C)=O)C1OC(C)=O` (stereo not drawn), the GI50 in assay [1] was 83.6 µM (inactive); in assay [2] it was > 100 µM (inactive); in assay [17], > 100 µM (inactive); in assay [3] it was > 100 µM (inactive); in [4], > 100 µM (inactive); in assay [5] it was > 100 µM (inactive). Besides, the GI50 in assay [6], in assay [8], in [9], in [10], in assay [12] and in assay [13] was > 100 µM (inactive) throughout. For the same compound, the GI50 in [18], in assay [14], in assay [19] and in assay [16] was > 100 µM (inactive) throughout.
For the compound `O=C1C(Cl)C(c2ccc(O)cc2)N1n1cnc2ccccc2c1=O` (stereo not drawn), the GI50 in assay [1] is 18.8 µM (inactive); in assay [2], 51.1 µM (inactive); in assay [17], 24.5 µM (inactive); in [3], 55.1 µM (inactive); in assay [4], 22.5 µM (inactive); in assay [5], 16 µM (inactive). The GI50 in assay [6] is 30.5 µM (inactive); in assay [8], 25.5 µM (inactive); in assay [9] it was 98.4 µM (inactive); in assay [10] it was 31.5 µM (inactive); in assay [12], 21 µM (inactive); in assay [13], 38.2 µM (inactive). Further, the GI50 is 31.9 µM (inactive) in assay [18], 49 µM (inactive) in [14], 35.2 µM (inactive) in assay [19] and 28.8 µM (inactive) in assay [16].
As to `CCOC(=O)/N=C(\N)SCc1ccccc1`, the GI50 in [1] is 31.6 µM (inactive); in [2], > 100 µM (inactive); in assay [17] it was 50.9 µM (inactive); in assay [3], > 100 µM (inactive); in assay [4], > 100 µM (inactive); in [5], > 100 µM (inactive). Moreover, the GI50 was > 100 µM (inactive) in [6]; > 100 µM (inactive) in [8]; > 100 µM (inactive) in [9]; > 100 µM (inactive) in [10]; 43.9 µM (inactive) in [12]; > 100 µM (inactive) in assay [13]. The GI50 in assay [18], in [14], in assay [19] and in [16] was > 100 µM (inactive) in each case.
Regarding `CC(C)/C=C1\CCC(CN2CCOCC2)C1=O` (stereo not drawn), the GI50 in [1] is 3.75 µM (inactive); in [2], 10.5 µM (inactive); in assay [17] it was 2.13 µM (inactive); in assay [3], 20.7 µM (inactive); in assay [4], 2.7 µM (inactive); in assay [5], 18 µM (inactive). Moreover, the GI50 in assay [6] was 11.9 µM (inactive); in assay [8], 20.8 µM (inactive); in assay [9] it was 45 µM (inactive); in assay [10], 4.24 µM (inactive); in assay [12] it was 24.4 µM (inactive); in assay [13] it was 18.4 µM (inactive). For the same compound, the figures for the GI50 in [18], in assay [19] and in assay [16] were 15.5 µM (inactive), 19.3 µM (inactive) and 3.66 µM (inactive), respectively.
For `CCCCCCCCCCCOC(=S)NC(C)C`, the GI50 is 20.5 µM (inactive) in assay [1]; 19.7 µM (inactive) in assay [2]; 15.6 µM (inactive) in [17]; 15.8 µM (inactive) in [3]; 16.3 µM (inactive) in [4]; 19.3 µM (inactive) in assay [5]. Also, the GI50 in assay [6] is 23.2 µM (inactive); in [8] it was 24.8 µM (inactive); in [9], 21 µM (inactive); in [10], 19 µM (inactive); in assay [12], 16.7 µM (inactive); in assay [13] it was 14.1 µM (inactive). In addition, the GI50 in assay [18] is 18.3 µM (inactive); in assay [14] it was 23.1 µM (inactive); in assay [19], 16.1 µM (inactive); in [16], 19.1 µM (inactive).
`Cc1cc(C)nc(Nc2nc3cc([N+](=O)[O-])ccc3[nH]2)n1`: the GI50 in assay [1], in assay [2], in assay [17], in [3], in assay [4] and in assay [5] was > 100 µM (inactive) each time. The GI50 in assay [6] was > 100 µM (inactive); in [8] it was > 100 µM (inactive); in assay [9] it was > 100 µM (inactive); in [10], > 100 µM (inactive); in [12], > 100 µM (inactive); in assay [13], 31.1 µM (inactive). Further, the GI50 in assay [18], in assay [19] and in [16] was > 100 µM (inactive) in each case.
